Our source for the IC50 and response vs control in vivo values is patent publication US6211227A, “Tricyclic compounds” (Kyowa Hakko Kogyo Co., Ltd., priority 1997, dated 2001).

Where two headings read alike, the source gives them in different places. Where only a bound is given, the exact number is not on record here.

For assay [1], the system named is detrusor muscle (isolated urinary bladder strips). The assay can be described thus: Relaxation of rhythmic contraction induced by 15 mmol/l KCl in isolated urinary bladder strips (Test Example 2). To be noted: Cavia porcellus; KCl 15 mmol/l; cumulative, contact time 15-30 minutes; 50% relaxant of maximum response. The arrangement: species or system guinea pig (male albino Hartley). The source says: (§1) The activity of Compounds (I) as therapeutic agents for pollakiuria and urinary incontinence is described below. In the following Test Examples 1 and 2, IC50 value was defined as the concentration at which a test compound produces 50% relaxant of maximum response of detrusor muscle.
(§2) Male albino Hartley guinea pigs (350-550 g) were used as test animals. Each animal was exsanguinated to death under sodium pentobarbital anesthesia. The lower abdominal cavity was opened and its bladder was positioned. The connective tissue and the fat tissue around the bladder were removed, and the bladder was washed. After bilateral pelvic nerves on the surface of the abdominal side of the bladder were dissected, the bladder was taken out on the entrance of ureter. The bladder was washed with a Krebs-Henseleit buffer [composition (mM): NaCl 118, KCl 4.7, MgSO4 1.2, KH2 PO4 1.2, CaCl2 2.5, NaHCO3 25, and D-glucose 11.1], and then put on a gauze patch soaked in the buffer in a Petri dish. The dome and the trigone of the bladder were cut away. The back of the bladder was cut vertically in the middle with scissors, and the bladder was put flat on the gauze patch. The mucosa of the bladder was removed. The back of the bladder was cut vertically to get 6 strips which are ca. 2.0 mm wide and ca. 10 mm long.
(§3) Each strip was tied at one end to plastic rod and placed in a 20 ml organ bath containing a Krebs-Henseleit solution which was maintained at 37° C. and bubbled vigorously with a gas mixture of 5% CO2 and 95% O2. The pH of the solution was adjusted to about 7.4. The other end of the strip was tied via silk thread to a force displacement transducer (NIHON KODEN TB-611T). The transducer was connected to a polygraph (NIHON KODEN AP-621G), and the changes in tension were recorded on a recorder (YOKOGAWA type 3066). The polygraph was graduated by 0.5 g/cm.
Isolated urinary bladder strips were prepared in the same manner as in Test Example 1, and the tension of the preparation was measured. After the tension of the tissue was adjusted to be a steady state at 1 g, 15 mmol/l KCl was applied. After the rhythmic contraction was confirmed to appear by KCl, the tissue was washed. Then, 15 mmol/l KCl was applied again. After the rhythmic contraction induced by KCl became constant, a test compound was applied by the cumulative method (half-logarithmic increment). The contact time at each concentration was 15-30 minutes. The activity of the compound was expressed as the maximum relaxation rate (%) against the tension induced by the agonist.

Assay [2] deals with bladder. Briefly: animal or person. To be noted: Rattus norvegicus, po, read-out: Contraction interval.
Description: Male SD strain rats (200-300 g) were used as test animals. Each animal was anesthetized by intraperitoneally administering 50 mg/kg Nembutal. The hair on the abdomen, the thigh, and the back of the neck was shaved, followed by disinfection with 70% ethanol. The left femoral artery of the rat was exposed by incising the thigh for the insertion of a catheter into the femoral artery. A catheter filled with physiological saline containing heparin (1000 units/ml) was introduced approximately 2-3 cm into the artery so that its tip resided in the abdominal artery. The distal end of the catheter was exteriorized at the nape of the neck, sealed, and fixed on the skin tightly. A bladder catheter was implanted according to the method of Yaksh, et al., [Am. J. Physiol., vol.251, R1177-1185 (1986)]. The bladder was exposed through a midline abdominal incision. The bladder dome was given a small incision to make a small hole. A catheter filled with physiological saline was placed into the bladder and secured with a silk ligature. The other end of the catheter was exteriorized at the nape of the neck after being passed under the skin using a trocar. The exposed end of the catheter was sealed and fixed on the skin tightly. The abdominal muscles and skin were sutured, and the test animal was recovered from anesthesia.
The rat was weighed 24-48 hours after the operation. Each rat was placed in a Bollman cage (NATSUME SEISAKUSHO), and the test was done under partial restraint. The arterial catheter was connected to a pressure transducer (NIHON KODEN DX-300) used for the measurement of blood pressure. The bladder catheter was connected to a sylinge pump for physiological saline infusion and to a pressure transducer with PE50 tubing and a three-way stop-cock. Intravesical physiological saline infusion (0.05 ml/minute) was started and continued during the test. The changes of blood pressure, heart rate, and intravesical pressure were recorded with a polygraph (NIHON KODEN). The test animal was allowed to equilibration (for ca. 60-120 minutes) until its micturition pattern became constant. At this point, a basal value of each test parameter was recorded, and the rat was compulsorily given a test compound (in 0.3% carboxymethyl cellulose-physiological saline) at a dose of 1 mg/kg (body weight) by oral administration. […] As a control compound, cromakalim was used. The contraction interval, the systemic blood pressure, and the heart rate were measured for 5 hours after the administration of the compound at one-hour intervals and were expressed as the relative values based on the pre-administration values which were regarded as 100.
Assay [3] relates to detrusor muscle (isolated urinary bladder strips). Briefly: Relaxation of contraction induced by 50 mmol/l KCl in isolated urinary bladder strips (Test Example 1). Details: species or system guinea pig (male albino Hartley). To be noted: Cavia porcellus, 0.5 h; KCl 50 mmol/l; cumulative, contact time 30 minutes; 50% relaxant of maximum response.
Excerpt: as §1, §2, §3
After the tissue was incubated in the buffer for 15 minutes without preloading, tension was added thereto for about one hour. The preloading tension added was 1.5 g and it was relaxed to about 1 g. The strips were allowed to equilibrate until their contractions became constant and tension was adjusted to 1 g. After this equilibrium period, 50 mmol/l KCl (the whole content in the bath) was added, and the tissue was washed 10 minutes later. KCl was added to the tissue at intervals of 30 minutes, followed by washing 10 minutes later, and KCl was applied repeatedly until the developed tension induced by KCl becomes constant. When the tissue was confirmed to contract constantly by the application of KCl and relax to the steady state after washing, 50 mmol/l KCl was applied again. After the tissue reached the steady state and the base line was obtained, a test compound was applied by the cumulative method (half-logarithmic increment). The contact time at each concentration was 30 minutes. The activity of the compound was expressed as the maximum relaxation rate (%) against the tension induced by the agonist.

`CC(O)(C(=O)Nc1ccc2c(c1)S(=O)(=O)Cc1occc1C2=O)C(F)(F)F` (stereo not drawn) [Compound 1-8, 9,9-Dioxo-7-(3,3,3-trifluoro-2-hydroxy-2-methylpropanoylamino)-4,10-dihydrofuro[2,3-c][1]benzothiepin-4-one]: the IC50 – broadly, the concentration at which inhibition is half-maximal – in assay [1] is 7.5 µM.
The compound `CC(O)(C(=O)Nc1ccc2c(c1)S(=O)(=O)Cc1ccc(F)cc1C2=O)C(F)(F)F` (stereo not drawn) [Compound 1-22, 5,5-Dioxo-9-fluoro-3-(3,3,3-trifluoro-2-hydroxy-2-methylpropanoylamino)-6,11-dihydrodibenzo[b,e]thiepin-11-one] came in with an IC50 in assay [1] of 6.5 µM.
Consider `CC(O)(C(=O)Nc1ccc(Cl)c2c1C(=O)c1sccc1CS2(=O)=O)C(F)(F)F` (stereo not drawn) [Compound 1-33, 6-Chloro-5,5-dioxo-9-(3,3,3-trifluoro-2-hydroxy-2-methylpropanoylamino)-4,10-dihydrothieno[3,2-c][1]benzothiepin-10-one], for which it took 0.7 µM to reach half-maximal inhibition in assay [1] (IC50). For the same compound, the response vs control in vivo at 1 mg/kg stood at 124 ± 15% in assay [2] (1 h); 137 ± 15% in assay [2] (2 h); 137 ± 4% in assay [2] (3 h); 142 ± 10% in assay [2] (4 h); 148 ± 21% in assay [2] (5 h).
Turning to `CC(O)(C(=O)Nc1cccc2c1C(=O)c1cccc(F)c1CS2(=O)=O)C(F)(F)F` (stereo not drawn) [Compound 1-19, 5,5-Dioxo-7-fluoro-1-(3,3,3-trifluoro-2-hydroxy-2-methylpropanoylamino)-6,11-dihydrodibenzo[b,e]thiepin-11-one], the IC50 in assay [1] stood at 4.3 µM. Further, the response vs control in vivo at 1 mg/kg amounted to 114 ± 9% in assay [2] (1 h); 139 ± 7% in assay [2] (2 h); 136 ± 11% in assay [2] (3 h); 145 ± 6% in assay [2] (4 h); 167 ± 15% in assay [2] (5 h).
`CC(O)(C(=O)Nc1cccc2c1C(=O)c1ccsc1CS2(=O)=O)C(F)(F)F` (stereo not drawn) [Compound 1-5, 9,9-Dioxo-5-(3,3,3-trifluoro-2-hydroxy-2-methylpropanoylamino)-4,10-dihydrothieno[2,3-c][1]benzothiepin-4-one]: the IC50 turned out to be 4 µM in assay [1] and 8.7 µM in assay [3].
In assay [1], `CC(O)(C(=O)Nc1cccc2c1C(=O)c1cccnc1CS2(=O)=O)C(F)(F)F` (stereo not drawn) [Compound 1-14, 10,10-Dioxo-6-(3,3,3-trifluoro-2-hydroxy-2-methylpropanoylamino)-5,11-dihydro[1]benzothiepino[3,4-b]pyridin-5-one] gave an IC50 of more than 10 µM.
Consider `Cc1ccc(NC(=O)C(C)(O)C(F)(F)F)c2c1S(=O)(=O)Cc1ccsc1C2=O` (stereo not drawn) [Compound 1-29, 5,5-Dioxo-6-methyl-9-(3,3,3-trifluoro-2-hydroxy-2-methylpropanoylamino)-4,10-dihydrothieno[3,2-c][1]benzothiepin-10-one], for which the IC50 in assay [1] stood at 2.4 µM.
In the case of `CC(C)(O)C(=O)Nc1cccc2c1C(=O)c1sccc1CS2(=O)=O` [Compound 3-12, 5,5-Dioxo-9-(2-hydroxy-2-methylpropanoylamino)-4,10-dihydrothieno[3,2-c][1]benzothiepin-10-one], the IC50 in assay [1] is more than 10 µM. Further, the response vs control in vivo at 1 mg/kg in assay [2] (1 h) was 118 ± 18%; in assay [2] (2 h) it was 153 ± 20%; in assay [2] (3 h), 152 ± 17%; in assay [2] (4 h), 161 ± 26%; in assay [2] (5 h), 165 ± 19%.
Compound `CC(O)(C(=O)Nc1cccc2c1C(=O)c1ccoc1CS2(=O)=O)C(F)(F)F` (stereo not drawn) [Compound 1-7, 9,9-Dioxo-5-(3,3,3-trifluoro-2-hydroxy-2-methylpropanoylamino)-4,10-dihydrofuro[2,3-c][1]benzothiepin-4-one] returned an IC50 in assay [1] of more than 10 µM. Besides, the response vs control in vivo at 1 mg/kg was 116 ± 9% in assay [2] (1 h); 138 ± 12% in assay [2] (2 h); 156 ± 17% in assay [2] (3 h); 155 ± 16% in assay [2] (4 h); 155 ± 17% in assay [2] (5 h).
`CC(O)(C(=O)Nc1ccc(F)c2c1C(=O)c1sccc1CS2(=O)=O)C(F)(F)F` (stereo not drawn) [Compound 1-35, 5,5-Dioxo-6-fluoro-9-(3,3,3-trifluoro-2-hydroxy-2-methylpropanoylamino)-4,10-dihydrothieno[3,2-c][1]benzothiepin-10-one] displayed an IC50 in assay [1] of 2.5 µM. The response vs control in vivo at 1 mg/kg in assay [2] (1 h) was 115 ± 2%; in assay [2] (2 h) it was 133 ± 12%; in assay [2] (3 h), 131 ± 15%; in assay [2] (4 h), 152 ± 4%; in assay [2] (5 h) it was 148 ± 3%.
Regarding `COc1ccc(NC(=O)C(C)(O)C(F)(F)F)c2c1S(=O)(=O)Cc1ccsc1C2=O` (stereo not drawn) [Compound 1-28, 5,5-Dioxo-6-methoxy-9-(3,3,3-trifluoro-2-hydroxy-2-methylpropanoylamino)-4,10-dihydrothieno[3,2-c][1]benzothiepin-10-one], the IC50 in assay [1] was more than 10 µM. The response vs control in vivo at 1 mg/kg in assay [2] (1 h) is 127 ± 10%; in assay [2] (2 h), 139 ± 7%; in assay [2] (3 h) it was 133 ± 6%; in assay [2] (4 h), 140 ± 3%; in assay [2] (5 h), 145 ± 3%.
Consider `CCC(C)(O)C(=O)Nc1cccc2c1C(=O)c1sccc1CS2(=O)=O` (stereo not drawn) [Compound 3-14, 5,5-Dioxo-9-(2-hydroxy-2-methylbutanoylamino)-4,10-dihydrothieno[3,2-c][1]benzothiepin-10-one], for which, in assay [1], the IC50 is more than 10 µM.
As for `CC1(C)Oc2ccc(C#N)cc2C(N2CCCC2=O)C1O` (stereo not drawn) [Cromakalim, cromakalim, reference compound], the response vs control in vivo at 1 mg/kg is 124% in assay [2] (1 h); 133% in assay [2] (2 h); 142% in assay [2] (3 h); 133% in assay [2] (4 h); 133% in assay [2] (5 h).
Take `CC(O)(C(=O)Nc1ccc2c(c1)C(=O)c1sccc1CS2(=O)=O)C(F)(F)F` (stereo not drawn) [Compound 1-9, 5,5-Dioxo-8-(3,3,3-trifluoro-2-hydroxy-2-methylpropanoylamino)-4,10-dihydrothieno[3,2-c][1]benzothiepin-10-one]: the IC50 in assay [1] is more than 10 µM. Further, the response vs control in vivo at 1 mg/kg in assay [2] (1 h) amounted to 129 ± 23%; in assay [2] (2 h), 123 ± 10%; in assay [2] (3 h), 143 ± 12%; in assay [2] (4 h), 135 ± 16%; in assay [2] (5 h), 130 ± 5%.
For the compound `O=C1c2sccc2CS(=O)(=O)c2cccc(NC(=O)C3CCCO3)c21` (stereo not drawn) [Compound 3-9, 5,5-Dioxo-9-(2-tetrahydrofuroylamino)-4,10-dihydrothieno[3,2-c][1]benzothiepin-10-one], the 50% inhibitory concentration (IC50) in assay [1] was more than 10 µM. Further, the response vs control in vivo at 1 mg/kg came out at 122 ± 7% in assay [2] (1 h); 128 ± 16% in assay [2] (2 h); 129 ± 18% in assay [2] (3 h); 150 ± 19% in assay [2] (4 h); 160 ± 21% in assay [2] (5 h).
`COc1ccc2c(c1)CS(=O)(=O)c1cccc(NC(=O)C(C)(O)C(F)(F)F)c1C2=O` (stereo not drawn) [Compound 1-24, 5,5-Dioxo-8-methoxy-1-(3,3,3-trifluoro-2-hydroxy-2-methylpropanoylamino)-6,11-dihydrodibenzo[b,e]thiepin-11-one] returned an IC50 in assay [1] of more than 10 µM. For the same compound, the response vs control in vivo at 1 mg/kg in assay [2] (1 h) amounted to 140 ± 11%; in assay [2] (2 h), 121 ± 17%; in assay [2] (3 h), 160 ± 19%; in assay [2] (4 h), 169 ± 25%; in assay [2] (5 h), 169 ± 25%.
